Results: patent US6432403B1, “Antibodies to polypeptides having prenylcysteine carboxyl methlytransferase activity or inhibiting activity” (New York University, priority 1997, dated 2002)

Target: T1, human pcCMT (Homo sapiens, UniProt O60725)
T1 construct: The 3.6-kb full-length HL60 pcCMT cDNA and an 852-bp cDNA fragment comprising the ORF were subcloned into the eukaryotic expression vectors; expressed in transfected cells; host or cells: COS-1 cells (pCDM8 vector, DEAE-dextran transfection); light membranes after nitrogen cavitation
T1 sequence (O60725 whole entry, the tested form may be a part): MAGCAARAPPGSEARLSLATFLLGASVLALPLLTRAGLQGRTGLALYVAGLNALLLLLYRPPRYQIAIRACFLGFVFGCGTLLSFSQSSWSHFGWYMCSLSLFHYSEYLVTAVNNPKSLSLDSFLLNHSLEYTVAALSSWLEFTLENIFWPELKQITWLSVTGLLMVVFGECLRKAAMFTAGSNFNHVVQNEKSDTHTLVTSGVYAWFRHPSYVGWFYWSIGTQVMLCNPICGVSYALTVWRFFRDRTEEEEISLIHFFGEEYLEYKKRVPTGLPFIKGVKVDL
Experiment: Carboxyl methylation of prenylcysteine analogs (AFC, AGGC) as defined substrates by the recombinant enzyme in COS-1 membranes
Type: biochemical
Experimental: Prenylcysteine Carboxyl Methyltransferase Assays: COS-1 cells transfected with HL60 pcCMT or vector alone were harvested at 48 hours with 5 mM EDTA and subjected, in parallel with human neutrophils, to nitrogen cavitation and discontinuous sucrose density centrifugation as described (Philips et al, 1991). Light membranes were assayed for pcCMT activity qualitatively by S-adenosyl-L- [methyl-^3H]methionine labeling (SDS-polyacrylamide gel electrophoresis and flurography) of Rho GTPases partially purified from neutrophil cytosol and quantitatively by carboxyl methylation of N-acetyl-S-trans,trans-farnesyl-L-cysteine (AFC) (heptane partition, alkaline hydrolysis, and measurement of vapor phase [^3H]methanol) as described (Philips et al, 1995)
To determine whether the HL60 STE14 protein homolog has prenylcysteine carboxyl methyltransferase activity, the cDNA was subcloned into a mammalian expression vector PCDM8 (Invitrogen, San Diego, Calif.) and transiently overexpressed ectopically in COS-1 cells. Membranes prepared from these cells were used as a source of recombinant enzyme. Farnesylated Ras GTPases require detergent for extraction from membranes. Therefore, geranylgeranylated neutrophil cytosolic Rho accessory protein, guanine nucleotide dissociation inhibitor (GDI), were utilized as endogenous substrates in an in vitro assay (FIGS. 5A and 5B). Untransfected COS-1 cell membranes had little pcCMT activity toward Rho proteins compared with that of membranes derived from human neutrophils (FIG. 5A). Transfection with the HL60 cDNA conferred pcCMT activity toward Rho GTPases on COS-1 membranes, and this activity was blocked by the competitive pcCMT inhibitor, AFC, with an ED50 (10 μM) identical to that for endogenous neutrophil pcCMT. Carboxyl methylation of Rac2 and RhoA by HL60 pcCMT-transfected COS-1 cell membranes was enhanced by guanosine 5′-3-O-(thio)triphosphate (GTPγS) (FIG. 5B), similar to the activity observed in neutrophil membranes (Philips et al, 1993). Carboxyl methyltransferase activity was quantitated in membranes of COS-1 cells transfected with HL60 pcCMT using prenylcysteine analogs as defined substrates (Philips et al, 1995). Untransfected COS-1 cell membranes had […] (n=5) of the pcCMT specific activity of neutrophil membranes toward AFC.
The Michaelis constants of the recombinant enzyme, Km=7 μM for AFC and 0.6 μM for AGGC, were similar to those for the endogenous neutrophil enzyme (Pillinger et al, 1994). Thus, the cDNA described above encodes authentic human myeloid pcCMT.

Increase in carboxyl methylation of the substrate on pcCMT transfection (n=2): 20 fold
Km (recombinant enzyme, read-out: Michaelis constant Km): 7 µM
SMILES: CC(=O)N[C@@H](CSC/C=C(\C)CC/C=C(\C)CCC=C(C)C)C(=O)O [AFC, N-acetyl-S-trans,trans-farnesyl-L-cysteine]
